Test results published in the supplement of paper PMC10307832.

Legend:
Assay in all cases: relative viability (nuclei count vs DMSO), 5 days (fraction); higher = more cells survive
[1] = compound: CC1=CC=C(C=C1)C(=O)CN2C3=C(CCCC3)SC2=N [Pifithrin_alpha] + NC(=O)Nc1cc(-c2cccc(F)c2)sc1C(=O)N[C@H]1CCCNC1 [AZD7762] (partner 0.2 µM)
Procedure, shortened: (§1)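 Each reported value is a median over duplicate plates. It expresses relative viability: treated-well nuclei count divided by vehicle-well nuclei count. Lung cancer cell lines in 1536-well plates were dosed by pin tool a day after seeding, alone with one drug or with a fixed anchor-drug dose plus five library-drug doses (not always all listed) in √10 steps, and nuclei were counted after 5 days.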

[2] = compound: CC1=CC=C(C=C1)C(=O)CN2C3=C(CCCC3)SC2=N [Pifithrin_alpha] + O=C(CCCCCCC(=O)Nc1ccccc1)NO [Vorinostat] (partner 1 µM)
Procedure, shortened: as §1

[3] = compound: CNC(=O)c1ccccc1Sc1ccc2c(/C=C/c3ccccn3)n[nH]c2c1 [Axitinib] + CC(C)C[C@H](NC(=O)[C@H](Cc1ccccc1)NC(=O)c1cnccn1)B(O)O [Bortezomib] (partner 0.002 µM)
Procedure, shortened: as §1

[4] = compound: CNC(=O)c1ccccc1Sc1ccc2c(/C=C/c3ccccn3)n[nH]c2c1 [Axitinib] + Cc1nc(NC(=O)N2CCC[C@H]2C(N)=O)sc1-c1ccnc(C(C)(C)C(F)(F)F)c1 [Alpelisib] (partner 2 µM)
Procedure, shortened: as §1

Row | Cell Line | relative viability ([1]; first compound 1 µM) | relative viability ([1]; first compound 3.162 µM) | relative viability ([1]; first compound 10 µM) | relative viability ([1]; first compound 31.62 µM) | relative viability ([1]; first compound 100 µM) | relative viability ([2]; first compound 1 µM) | relative viability ([2]; first compound 3.162 µM) | relative viability ([2]; first compound 10 µM) | relative viability ([2]; first compound 31.62 µM) | relative viability ([2]; first compound 100 µM) | relative viability ([3]; first compound 0.005 µM) | relative viability ([3]; first compound 0.01581 µM) | relative viability ([3]; first compound 0.05 µM) | relative viability ([3]; first compound 0.1581 µM) | relative viability ([3]; first compound 0.5 µM) | relative viability ([4]; first compound 0.005 µM) | relative viability ([4]; first compound 0.01581 µM) | relative viability ([4]; first compound 0.05 µM) | relative viability ([4]; first compound 0.1581 µM) | relative viability ([4]; first compound 0.5 µM)
1 | 201T | 0.669 | 0.773 | 0.781 | 0.461 | 0.627 | 0.529 | 0.948 | 0.757 | 0.666 | 0.711 | 1.14 | 1.08 | 1.06 | 1.07 | 1.11 | 1.01 | 0.959 | 0.947 | 0.987 | 0.972
2 | A549 | – | – | – | – | – | – | – | – | – | – | – | – | – | – | – | 0.79 | 0.741 | 0.775 | 0.753 | 0.874
3 | A-427 | 0.692 | 0.675 | 0.666 | 0.644 | 0.672 | 0.827 | 0.83 | 0.807 | 0.762 | 0.728 | 1.07 | 1.04 | 0.988 | 1.06 | 1.13 | 1.05 | 1.1 | 1.08 | 1.05 | 1.09
4 | ABC-1 | – | 0.977 | 0.8 | 0.726 | 0.679 | – | 1.25 | 0.844 | 0.622 | 0.765 | 0.34 | 0.307 | 0.315 | 0.254 | 0.289 | 1.16 | 1.06 | 0.945 | 1.07 | 1.54
5 | BEN | 0.608 | 0.753 | 0.722 | 0.533 | 0.656 | 0.448 | 0.564 | 0.617 | 0.555 | 0.571 | 0.804 | 0.781 | 0.554 | 0.75 | 0.543 | 0.993 | 1.04 | 0.928 | 1.04 | 0.908
6 | CAL-12T | 0.548 | 0.658 | 0.62 | 0.401 | 0.476 | 0.699 | 0.73 | 0.706 | – | 0.651 | 1.03 | 0.978 | 0.955 | 1.11 | 0.965 | 1.35 | 1.38 | 1.01 | 1.26 | 1.32
7 | COR-L23 | – | – | – | – | – | 0.42 | 0.349 | 0.361 | – | 0.344 | 1.05 | 1.04 | 0.943 | 0.959 | 1.2 | 0.77 | 0.857 | 0.78 | 0.83 | 1.06
8 | COR-L 105 | – | – | – | – | – | 0.844 | 0.665 | 0.699 | 0.608 | 0.633 | 0.748 | 0.868 | 0.798 | 0.758 | 0.92 | 1.08 | 1.2 | 1.02 | 0.932 | 1.18
9 | Calu-6 | – | – | – | – | – | – | – | – | – | – | 1.11 | 0.944 | 0.956 | 1.1 | 0.996 | 0.847 | 0.997 | 1.02 | 1.01 | 1.18
10 | ChaGo-K-1 | 0.905 | 0.947 | 0.872 | 0.683 | 0.866 | 0.574 | 0.836 | 0.788 | 0.524 | 0.771 | 0.953 | 0.919 | 1.13 | 1.05 | 1.16 | – | – | – | – | –
11 | EBC-1 | – | – | – | – | – | – | – | – | – | – | 0.631 | 0.657 | 0.521 | 0.565 | 0.629 | 0.904 | 0.863 | 0.806 | 0.738 | 1.07
12 | EKVX | 0.685 | 0.562 | 0.592 | 0.463 | 0.424 | – | 0.597 | 0.549 | 0.636 | 0.572 | 1.13 | 1.08 | 0.98 | 1.03 | 0.997 | 1.06 | 0.82 | 0.838 | 0.87 | 1
13 | EMC-BAC-2 | 1.09 | 1.09 | 0.954 | 0.82 | 1.04 | – | 0.413 | – | 0.328 | 0.413 | 1.13 | 1.04 | 1.09 | 1.13 | 1.07 | 0.788 | 0.702 | 0.742 | 0.749 | 0.808
14 | EPLC-272H | – | 0.233 | 0.212 | 0.196 | 0.215 | 0.472 | 0.419 | 0.244 | 0.177 | 0.27 | 0.986 | 0.804 | 0.857 | 0.994 | 0.892 | 1.11 | 0.868 | 0.949 | 0.884 | 0.915
15 | H3255 | 0.716 | 0.95 | 0.801 | 0.683 | 0.637 | 0.682 | 0.818 | 0.788 | 0.497 | 0.703 | 0.672 | 0.778 | 0.856 | 0.962 | 0.6 | 0.648 | 0.611 | 0.632 | 0.724 | 0.702
16 | HARA | 0.3 | 0.329 | 0.219 | 0.23 | 0.209 | – | 0.558 | 0.674 | 0.468 | 0.513 | 1.09 | 1.07 | 1.1 | 1.13 | 1.14 | 0.877 | 0.909 | 0.975 | 0.824 | 1.02
17 | HCC-15 | 1.28 | 1.27 | 1.03 | 1.1 | 1.3 | 0.871 | 0.833 | 0.8 | 0.676 | 0.646 | 1.08 | 0.995 | 1.01 | 0.988 | 1.06 | 0.933 | 0.899 | 0.838 | 0.847 | 0.866
18 | HCC-44 | 0.91 | 0.977 | 0.985 | 0.869 | 0.888 | 1.04 | 0.924 | 0.91 | 0.834 | 0.902 | 0.925 | 0.859 | 0.855 | 0.89 | 1.01 | 0.842 | 0.881 | 0.873 | 0.834 | 0.89
19 | HCC-78 | – | 0.509 | 0.566 | 0.54 | 0.526 | – | 0.506 | 0.519 | 0.407 | 0.467 | 0.643 | 0.491 | 0.305 | 0.499 | 0.566 | 0.34 | 0.328 | 0.3 | 0.322 | 0.366
